The target of assay [1] is T1, CHIP ubiquitin E3 ligase (Homo sapiens, UniProt Q9UNE7).
T1 sequence (Q9UNE7 1-303): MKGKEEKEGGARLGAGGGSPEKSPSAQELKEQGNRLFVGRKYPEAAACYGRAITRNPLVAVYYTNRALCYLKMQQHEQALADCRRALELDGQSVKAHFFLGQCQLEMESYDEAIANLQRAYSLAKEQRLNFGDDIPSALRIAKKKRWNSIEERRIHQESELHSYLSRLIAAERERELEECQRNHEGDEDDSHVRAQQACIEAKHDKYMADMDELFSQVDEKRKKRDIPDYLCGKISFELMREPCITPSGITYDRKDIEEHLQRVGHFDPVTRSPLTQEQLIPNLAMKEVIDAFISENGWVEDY
The settings on record: Zhao et al. 2015; cited from earlier work.

For assay [2], the target named is T2, ERα (Homo sapiens, UniProt P03372).
T2 sequence (P03372 1-595): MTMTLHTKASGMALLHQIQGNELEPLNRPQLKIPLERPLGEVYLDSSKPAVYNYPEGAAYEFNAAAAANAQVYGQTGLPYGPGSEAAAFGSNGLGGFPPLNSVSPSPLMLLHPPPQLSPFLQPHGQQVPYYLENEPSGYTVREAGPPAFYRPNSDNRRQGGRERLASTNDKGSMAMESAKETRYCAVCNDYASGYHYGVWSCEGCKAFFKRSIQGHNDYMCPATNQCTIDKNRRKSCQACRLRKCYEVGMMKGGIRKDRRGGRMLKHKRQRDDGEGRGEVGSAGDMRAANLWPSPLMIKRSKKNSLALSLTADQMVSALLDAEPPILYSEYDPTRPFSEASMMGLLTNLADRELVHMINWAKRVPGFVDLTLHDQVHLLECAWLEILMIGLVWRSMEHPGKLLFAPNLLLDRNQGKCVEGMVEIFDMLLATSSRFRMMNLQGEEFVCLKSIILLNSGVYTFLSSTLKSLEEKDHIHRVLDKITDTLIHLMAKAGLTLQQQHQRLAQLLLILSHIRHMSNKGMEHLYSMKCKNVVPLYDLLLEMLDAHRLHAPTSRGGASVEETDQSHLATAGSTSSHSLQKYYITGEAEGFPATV
As to the kind of experiment: Direct binding to ERα.

On to `O=C1c2c(O)cc(O)cc2-c2c(-c3ccc(O)cc3)oc3cc(O)cc1c23` [Dip G, diptoindonesin G], for which, in assay [1], the “target E3 ubiquitin ligase CHIP (STUB1)” value is on record as “found to target”. Also, the “direct binding to ERα” value in assay [2] is “does not directly bind”.

The record behind these values is US10508092B2, “Synthesis of novel analogs of diptoindonesin G, compounds formed thereby, and pharmaceutical compositions containing them” (Wisconsin Alumni Research Foundation, priority 2016, dated 2019).
